The term Ki denotes the equilibrium dissociation constant of an inhibitor or competing ligand from its target.

SMILES strings stand for the structures. Where two headings read alike, the source gives them in different places.

For assay [1] the following is noted: phase III trial STRATUS-US; cited from earlier work.
The conditions of assay [2]: wild-type versus CB1 knockout mice; cited from earlier work.
The conditions of assay [3]: several phase III studies; cited from earlier work.
The conditions of assay [4]: 10 and 20 mg daily; cited from earlier work.
The target of assay [5] is T1, human cannabis CB1 receptor (Homo sapiens, UniProt P21554).
T1 construct: expressed in transfected cells; host or cells: human embryonic kidney (HEK) cells, Semliki Forest Virus system, membrane preparation
T1 sequence (P21554 whole entry): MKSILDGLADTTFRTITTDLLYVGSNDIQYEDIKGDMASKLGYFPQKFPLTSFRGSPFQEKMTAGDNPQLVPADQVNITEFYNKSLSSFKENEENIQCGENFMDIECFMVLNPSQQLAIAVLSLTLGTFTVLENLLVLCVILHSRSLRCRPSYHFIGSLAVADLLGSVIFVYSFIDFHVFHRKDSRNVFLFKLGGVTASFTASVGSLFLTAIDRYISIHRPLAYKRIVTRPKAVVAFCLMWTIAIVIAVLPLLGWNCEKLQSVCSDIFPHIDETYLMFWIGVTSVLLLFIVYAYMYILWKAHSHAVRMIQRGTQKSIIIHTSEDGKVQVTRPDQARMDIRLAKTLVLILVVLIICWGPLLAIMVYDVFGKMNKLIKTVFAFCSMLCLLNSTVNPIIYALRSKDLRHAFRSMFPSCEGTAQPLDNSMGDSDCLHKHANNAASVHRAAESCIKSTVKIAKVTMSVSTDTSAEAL
The experiment in a line: Affinity for cannabinoid CB1 receptors, [3H]-CP-55,940 radioligand binding on HEK cell membranes. Here is the method:
The affinity of the compounds of the invention for cannabinoid CB1 receptors was determined using membrane preparations of human embryonic kidney (HEK) cells in which the human cannabis CB1 receptor is transiently transfected using the Semliki Forest Virus system in conjunction with [3H]-CP-55,940 as radioligand. After incubation of a freshly prepared cell membrane preparation with the [3H]-ligand, with or without addition of compounds of the invention, separation of bound and free ligand was performed by filtration over glassfiber filters. Radioactivity on the filter was measured by liquid scintillation counting.
The compounds of formula (I) show an excellent affinity for the CB1 receptor, determined with the experimental conditions described in Devane et. al. Mol. Pharmacol. 34 (1988) 605-613.

The mark [6] stands for this setting: [3H]-CP-55,940 as radioligand, membranes of HEK cells transfected with human CB1 receptor, read-out: Ki.

Take `Cc1c(C(=O)NN2CCCCC2)nn(-c2ccc(Cl)cc2Cl)c1-c1ccc(Cl)cc1` [SR 141716, Rimonabant]: the “efficacy for smoking cessation” value in assay [1] is “has shown efficacy”. Moreover, in assay [2], the food intake result is recorded as “reduces food intake in wild-type but not knockout mice”. The “body weight, waist circumference and metabolic parameters (plasma HDL, triglycerides and insulin sensitivity)” value in assay [3] was “reduced body weight, waist circumference and improved metabolic parameters”. Also, the “body weight compared to placebo” value in assay [4] is given as “significantly reduced body weight”.
Regarding `CN(c1ncc(C(=O)N[C@@H]2CCCC[C@H]2O)nc1-c1ccc(OC(F)(F)F)cc1)C1CC1` [Example 21, 5-(Cyclopropyl-methyl-amino)-6-(4-trifluoromethoxy-phenyl)-pyrazine-2-carboxylic acid ((1R,2R)-2-hydroxy-cyclohexyl)-amide], the Ki in assay [5] (setting [6]) stood at 35.4 nM.
As for `COCCOc1ncc(C(=O)NC[C@](C)(O)C2CC2)nc1-c1ccc(Cl)cc1` [Example 27, 6-(4-Chloro-phenyl)-5-(2-methoxy-ethoxy)-pyrazine-2-carboxylic acid ((R)-2-cyclopropyl-2-hydroxy-propyl)-amide], the Ki in assay [5] was found to be 47.5 nM.
On to `C[C@](O)(CNC(=O)c1cnc(OCc2ncccn2)c(-c2ccc(F)cc2)n1)C1CC1` [Example 69, 6-(4-Fluoro-phenyl)-5-(pyrimidin-2-ylmethoxy)-pyrazine-2-carboxylic acid ((R)-2-cyclopropyl-2-hydroxy-propyl)-amide], for which the Ki in assay [5] (setting [6]) turned out to be 12.2 nM.

These data come from patent US7629346B2, “Pyrazinecarboxamide derivatives as CB1 antagonists” (Hoffmann-La Roche Inc., priority 2006, dated 2009).
